Data taken from patent US20080311681A1, “Antibody Binding Affinity Ligands” (priority 2004, published 2008).
Values joined by “and” are separate entries in the source; they are usually repeats but may differ in a detail not shown here. Equal values may be shown once.

The substances below were run on Fc fragment of an antibody (assay: Incubation of bead-bound ligands with labelled Fc fragment, fluorescence on beads). Settings: Oregon Green labelled Fc fragment, ligands on PEGA1900 beads, overnight at room temperature, arbitrary scale from 0 to 3, judged by eye.
Type: binding
Design: key: 0 indicates no fluorescence; 3 indicates the strongest level of fluorescence observed
Protocol: The Fc fragment of an antibody was purified by dialysis in bicarbonate buffer (pH 8). The purified Fc fragment was treated with Oregon Green dye (50×) in DMF and kept for 1 hour at room temperature. The reaction was stopped by adding hydroxylamine (1.5 M, pH 8.5). The labelled polypeptide was purified by dialysis in bicarbonate buffer (pH 8).
The beads (10 mg) were washed with water (10×), bicarbonate buffer (pH 8, 10×), and were suspended in bicarbonate buffer for 1 h. The labelled polypeptide was then added to the resin and kept overnight at room temperature. The resin was washed with bicarbonate buffer (pH 8) and water.
The fluorescence on the beads was recorded by using a fluorescence microscope and a digital camera. A mercury lamp equipped with an emission filter provided excitation in the visible blue range. The images of the beads were recorded in water.
The below table lists the ligands and the corresponding apparent level of fluorescence determined by simply looking at the samples and comparing the apparent colour intensities between samples. On an arbitrary scale from 0 to 3, where 0 indicates no fluorescence and 3 indicates the strongest level of fluorescence observed.
In the case of 3HBA-(L)Arg-(L)Pro-Gly [LII#44], the “mark (apparent level of fluorescence)” value is reported as 2. For 3HBA-(L)Pro-(L)Arg-Gly [LII#45], the “mark (apparent level of fluorescence)” value was 2. In the case of 4HBA-(L)Arg-(L)Pro-Gly [LII#46], the “mark (apparent level of fluorescence)” value is reported as 2. In the case of 4HBA-(L)Pro-(L)Arg-Gly [LII#47], the “mark (apparent level of fluorescence)” value is reported as 2. D-Lys-INA-(L)Arg-Gly [LI#41] was tested, and the “mark (apparent level of fluorescence)” value was 2. For D-Phe-(L)Arg-(L)Arg-Gly [LI#16], the “mark (apparent level of fluorescence)” value was 2. In the case of D-Pro-PPC-(L)Arg-Gly [L1#21], the “mark (apparent level of fluorescence)” value is reported as 2. For DBHBA-(L)Arg-(L)Asn-Gly [LII#54], the “mark (apparent level of fluorescence)” value was 3. For DBHBA-(L)Asn-(L)Arg-Gly [LII#55], the “mark (apparent level of fluorescence)” value was 3. For INA-(L)Arg-D-Lys-Gly [LI#44], the “mark (apparent level of fluorescence)” value was 2. In the case of INA-D-Phe-PPC-Gly [LI#12], the “mark (apparent level of fluorescence)” value is reported as 2. With L-Arg-(L)Arg-D-Lys-Gly [LI#27] the “mark (apparent level of fluorescence)” value was 2. For L-Arg-(L)Arg-D-Phe-Gly [LI#18], the “mark (apparent level of fluorescence)” value was 2. L-Arg-D-Lys-(L)Arg-Gly [LI#26] was tested, and the “mark (apparent level of fluorescence)” value was 2. With L-Arg-D-Phe-(L)Arg-Gly [LI#17] the “mark (apparent level of fluorescence)” value was 3 and 2. L-Arg-D-Pro-PPC-Gly [LI#24] was tested, and the “mark (apparent level of fluorescence)” value was 2. For PPC-(L)Arg-D-Pro-Gly [LI#20], the “mark (apparent level of fluorescence)” value was 2. For PPC-Ahx-PPC-Gly [LI#53], the “mark (apparent level of fluorescence)” value was 2. For PPC-Aib-PPC-Gly [LI#14], the “mark (apparent level of fluorescence)” value was 2. PPC-D-Leu-PPC-Gly [L1#50] was tested, and the “mark (apparent level of fluorescence)” value was 3. With PPC-D-Pro-(L)Arg-Gly [LI#19] the “mark (apparent level of fluorescence)” value was 3. In the case of PPC-Nle-PPC-Gly [LI#56], the “mark (apparent level of fluorescence)” value is reported as 2. For SAA-(L)Arg-(L)Pro-Gly [LII#48], the “mark (apparent level of fluorescence)” value was 3. In the case of SAA-(L)Pro-(L)Arg-Gly [LII#49], the “mark (apparent level of fluorescence)” value is reported as 3.

Same assay, conditions: Oregon Green labelled Fc fragment, ligands on PEGA1900 beads, overnight at room temperature, arbitrary scale from 0 to 3, judged by eye; listed as L1#16
D-Phe-(L)Arg-(L)Arg-Gly [LI#16] was tested, and the “mark (apparent level of fluorescence)” value was 3.

These substances were tested on monoclonal antibody (assay: Chromatographic evaluation of ligands coupled on Fractogel (packed column, load, wash, elution, regeneration)). Settings: not optimized operation conditions.
Type: binding
Protocol: The new resins were assessed in packed mode. 1 mL of each resin was packed into an HR5 chromatography column (GE Healthcare) applying standard conditions.
Before loading the matrix with the monoclonal antibody, the column was equilibrated with 6 column volumes equilibration buffer containing 50 mM Na-phosphate (pH 7.0; cond. 9 mS cm^−1). After equilibration a monoclonal antibody solution in equilibration buffer (protein conc. 1.14 mg/mL) was loaded to the column. Subsequently, the column was washed with 6 column volumes of equilibration buffer and eluted with 6 column volumes of elution buffer 1 (25 mM sodium acetate pH 5.5; cond. 1.8 mS cm^−1) and 6 column volumes of elution buffer 2 (25 mM sodium acetate buffer pH 3.8; 0.5 mS cm^−1). The column was stored in […] ethanol. Afterwards, the matrix was regenerated with 40 mM phosphoric acid and 20 mM sodium hydroxid. The flow rate for equilibration, load and wash was 60 cm/h, elution and regeneration was performed at a flow rate of 30 cm/h.
D-Phe-(L)Arg-(L)Arg-Gly [LI#16] was tested, and the “mAb in the flow through (in words)” value was “nothing was detected in the flow through”. DBHBA-(L)Asn-(L)Arg-Gly [LII#55] was tested, and the “mAb in the flow through (in words)” value was “only limited material is in the flow through”.
